Laboratory results taken from ChEMBL document CHEMBL4017490, “Design, Synthesis, and Pharmacological Evaluation of Novel Multisubstituted Pyridin-3-amine Derivatives as Multitargeted Protein Kinase Inhibitors for the Treatment of Non-Small Cell Lung Cancer” (J Med Chem, 2017).

Key:
NCI-H1581 [1] = conditions: Homo sapiens
Description: Antitumor activity against human NCI-H1581 cells xenografted in po dosed nude mouse assessed as tumor growth inhibition administered as qd for 14 days measured twice per week during compound dosing

[2] = Apparent clearance in Sprague-Dawley rat at 10 mg/kg, iv by LC-MS/MS method; format: ADME, organism-based; conditions: in vivo, read-out: CL(app) (converted)
[3] = Cmax in CD-1 mouse at 20 mg/kg, po by LC-MS/MS method; format: ADME, organism-based; parameters: dose 20 mg/kg, route oral; conditions: in vivo
[4] = Tmax in CD-1 mouse at 5 mg/kg, iv by LC-MS/MS method; format: ADME, organism-based; conditions: in vivo
[5] = Half life in CD-1 mouse at 20 mg/kg, po by LC-MS/MS method; format: ADME, organism-based; conditions: in vivo
[6] = Tmax in Sprague-Dawley rat at 10 mg/kg, iv by LC-MS/MS method; format: ADME, organism-based; conditions: in vivo
[7] = Cmax in Sprague-Dawley rat at 10 mg/kg, iv by LC-MS/MS method; format: ADME, organism-based; parameters: dose 10 mg/kg, route intravenous; conditions: in vivo
[8] = Cmax in CD-1 mouse at 5 mg/kg, iv by LC-MS/MS method; format: ADME, organism-based; parameters: dose 5 mg/kg, route intravenous; conditions: in vivo
[9] = MRT in Sprague-Dawley rat at 10 mg/kg, iv by LC-MS/MS method; format: ADME, organism-based; conditions: in vivo
NCI-H1581 [10] = assay: Antitumor activity against human NCI-H1581 cells xenografted in nude mouse assessed as tumor growth inhibition at 5 mg/kg, po qd administered for 14 days measured twice per week during compound dosing; format: functional; conditions: 336 h, read-out: TGI
Mus musculus = assay: Toxicity in nude mouse xenografted with human NCI-H1581 cells assessed as emaciation at 20 mg/kg, po qd administered for 14 days; format: organism-based; conditions: in vivo, 336 h
[11] = MRT in Sprague-Dawley rat at 20 mg/kg, po by LC-MS/MS method; format: ADME, organism-based; conditions: in vivo
[12] = AUC (0 to infinity) in CD-1 mouse at 5 mg/kg, iv by LC-MS/MS method; format: ADME, organism-based; parameters: dose 5 mg/kg, time infinity, route intravenous; conditions: in vivo
[13] = Cmax in Sprague-Dawley rat at 20 mg/kg, po by LC-MS/MS method; format: ADME, organism-based; parameters: dose 20 mg/kg, route oral; conditions: in vivo
[14] = Half life in Sprague-Dawley rat at 20 mg/kg, po by LC-MS/MS method; format: ADME, organism-based; conditions: in vivo
[15] = target: Discoidin domain-containing receptor 2 (Homo sapiens, UniProt Q16832); assay: Inhibition of recombinant DDR2 (unknown origin) using poly (Glu,Tyr) 4:1 as substrate after 60 mins by ELISA
[16] = Protein binding in plasma (unknown origin); format: ADME, cell-free; conditions: read-out: PPB (converted)
[17] = Half life in CD-1 mouse at 5 mg/kg, iv by LC-MS/MS method; format: ADME, organism-based; conditions: in vivo
[18] = Inhibition of FGFR3 mutant in human UM-UC-14 cells assessed as inhibition of cell proliferation after 72 hrs by cell counting kit-8 assay; format: cell-based; conditions: UMUC14, 72 h
[19] = AUC (0 to t) in CD-1 mouse at 20 mg/kg, po by LC-MS/MS method; format: ADME, organism-based; conditions: in vivo
[20] = Tmax in CD-1 mouse at 20 mg/kg, po by LC-MS/MS method; format: ADME, organism-based; conditions: in vivo
[21] = AUC (0 to t) in CD-1 mouse at 5 mg/kg, iv by LC-MS/MS method; format: ADME, organism-based; conditions: in vivo
[22] = MRT in CD-1 mouse at 5 mg/kg, iv by LC-MS/MS method; format: ADME, organism-based; conditions: in vivo
[23] = Oral bioavailability in Sprague-Dawley rat at 20 mg/kg by LC-MS/MS method; format: ADME, organism-based; conditions: in vivo

Discoidin domain-containing receptor 2, sequence (Q16832 whole entry, the tested form may be a part): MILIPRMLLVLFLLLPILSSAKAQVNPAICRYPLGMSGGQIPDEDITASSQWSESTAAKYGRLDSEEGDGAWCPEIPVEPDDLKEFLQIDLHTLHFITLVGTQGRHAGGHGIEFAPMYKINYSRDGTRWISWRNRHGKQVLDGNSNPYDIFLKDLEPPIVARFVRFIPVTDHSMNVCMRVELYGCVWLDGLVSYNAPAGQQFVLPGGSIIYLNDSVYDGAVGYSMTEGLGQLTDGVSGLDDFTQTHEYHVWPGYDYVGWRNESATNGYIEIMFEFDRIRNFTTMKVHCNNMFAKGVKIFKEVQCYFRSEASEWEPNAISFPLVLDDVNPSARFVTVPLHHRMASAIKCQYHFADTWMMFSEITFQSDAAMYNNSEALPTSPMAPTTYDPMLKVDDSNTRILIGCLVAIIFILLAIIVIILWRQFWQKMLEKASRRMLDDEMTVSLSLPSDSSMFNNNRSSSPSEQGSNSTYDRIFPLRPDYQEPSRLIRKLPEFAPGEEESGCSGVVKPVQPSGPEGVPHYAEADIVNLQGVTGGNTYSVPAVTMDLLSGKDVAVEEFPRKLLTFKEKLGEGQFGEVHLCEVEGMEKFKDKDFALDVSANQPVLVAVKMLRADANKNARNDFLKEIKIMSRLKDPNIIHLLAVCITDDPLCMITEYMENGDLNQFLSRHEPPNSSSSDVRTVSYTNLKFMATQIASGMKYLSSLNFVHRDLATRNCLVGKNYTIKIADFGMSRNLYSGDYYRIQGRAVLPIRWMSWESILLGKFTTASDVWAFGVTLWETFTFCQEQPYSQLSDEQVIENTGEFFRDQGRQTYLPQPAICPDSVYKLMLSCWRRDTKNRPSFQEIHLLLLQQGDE

For `Cc1n[nH]c2ccc(-c3cc(N[C@@H](CO)c4ccccc4)cnc3-c3cc(F)ccc3O)cc12`, the TGI (NCI-H1581 [1]) was “Dose-dependent effect”, the clearance [2] was 12.1 mL/min/kg and the Cmax [3] was 961 ng/mL. For the same molecule, the Tmax [4] was 1.5 h, the half-life [5] was 2.72 h and the Tmax [6] was 0.25 h. For the same molecule, the Cmax [7] was 6540 ng/mL, the Cmax [8] was 106 ng/mL and the MRT [9] was 3.41 h. For the same molecule, the inhibition in vivo at 5 mg/kg (NCI-H1581 [10]) was 37.8%, the Activity (Mus musculus) was “Toxic” and the MRT [11] was 6.72 h. For the same molecule, the AUC(0-inf) [12] was 290 ng·h/mL, the Cmax [13] was 2080 ng/mL and the half-life [14] was 8 h. For the same molecule, the IC50 [15] was 0.8 nM, the fraction unbound [16] was 0.0044 and the half-life [17] was 2.5 h. For the same molecule, the IC50 [18] was 128 nM, the AUC(0-t) [19] was 2400 ng·h/mL and the Tmax [20] was 0.42 h. For the same molecule, the AUC(0-t) [21] was 289 ng·h/mL, the MRT [22] was 3.74 h and the bioavailability [23] was 60%.
